The source of these data is US8841321B2, “Quinoline derivatives as antibacterial agents” (Janssen Pharmaceutica NV, priority 2005, dated 2014).

The structures appear in SMILES notation. In brackets after ≈: the same amount, converted by molar mass.

Experiment in all cases: Microtitre plate assay, IC90 determination
Holding throughout (assay type): cell-based

Assay [1] concerns SPN 6305 (Streptococcus pneumoniae (ATCC6305)). As to conditions: Streptococcus pneumoniae (ATCC6305). The protocol:
(§1) The bacteria used in this study were grown overnight in flasks containing 100 ml Mueller-Hinton Broth (Becton Dickinson—cat. no. 275730) in sterile de-ionized water, with shaking, at 37° C. Stocks (0.5 ml/tube) were stored at −70° C. until use. Bacteria titrations were performed in microtiter plates and colony forming units (CFUs) were determined. In general, an inoculum level of approximately 100 CFUs was used for susceptibility testing.
(§2) Flat-bottom, sterile 96-well plastic microtiter plates were filled with 180 μl of sterile deionized water, supplemented with 0.25% BSA. Subsequently, stock solutions (7.8× final test concentration) of compounds were added in 45 μl volumes in column 2. Serial five-fold dilutions (45 μl in 180 μl) were made directly in the microtiter plates from column 2 to reach column 11. Untreated control samples with (column 1) and without (column 12) inoculum were included in each microtiter plate. Depending on the bacteria type, approximately 10 to 60 CFU per well of bacteria inoculum (100 TCID50), in a volume of 100 μl in 2.8× Mueller-Hinton broth medium, was added to the rows A to H, except column 12. The same volume of broth medium without inoculum was added to column 12 in row A to H. The cultures were incubated at 37° C. for 24 hours under a normal atmosphere (incubator with open air valve and continuous ventilation). At the end of incubation, one day after inoculation, the bacterial growth was quantitated fluorometrically. Therefore resazurin (0.6 mg/ml) was added in a volume of 20 μl to all wells 3 hours after inoculation, and the plates were re-incubated overnight. A change in colour from blue to pink indicated the growth of bacteria. The fluorescence was read in a computer-controlled fluorometer (Cytofluor Biosearch) at an excitation wavelength of 530 nm and an emission wavelength of 590 nm. The % growth inhibition achieved by the compounds was calculated according to standard methods. The IC90 (expressed in μg/ml) was defined as the 90% inhibitory concentration for bacterial growth.

In assay [2] the test system is STA 29213 (Staphylococcus aureus (ATCC29213)). As to conditions: Staphylococcus aureus (ATCC29213). The protocol: as §1, §2
Assay [3] concerns STA RMETH (methicilline resistant Staphylococcus aureus (MRSA), a clinical isolate from the University of Antwerp).

In the case of `COc1nc2c(C)c(Br)ccc2cc1C(c1ccccc1)C(O)(CCCCN(C)C)c1ccc2ccccc2c1` (racemic) [Compound 80], in assay [1], the “IC90 (μg/ml) SPN 6305” value turned out to be 2.12 µg/mL (≈ 3.55 µM). The “IC90 (μg/ml) STA 29213” value in assay [2] is 1.89 µg/mL (≈ 3.16 µM). Further, the “IC90 (μg/ml) STA RMETH” value in assay [3] worked out at 2.38 µg/mL (≈ 3.98 µM).

As to `COc1nc2ccc(-c3ccco3)cc2cc1C(c1ccccc1)C(O)(CCCCN(C)C)c1ccccc1` (racemic) [Compound 82], the “IC90 (μg/ml) SPN 6305” value in assay [1] came to 1.65 µg/mL (≈ 3.17 µM). For the same compound, the “IC90 (μg/ml) STA 29213” value in assay [2] came out at 1.65 µg/mL (≈ 3.17 µM). Further, the “IC90 (μg/ml) STA RMETH” value in assay [3] was found to be 10.39 µg/mL (≈ 20 µM).

`COc1nc2ccc(-c3ccco3)cc2cc1C(c1ccccc1)C(O)(CCCCN(C)C)c1ccccc1` (racemic) [Compound 83]: the “IC90 (μg/ml) SPN 6305” value in assay [1] was determined as 1.65 µg/mL (≈ 3.17 µM). The “IC90 (μg/ml) STA 29213” value in assay [2] amounted to 1.65 µg/mL (≈ 3.17 µM). Besides, the “IC90 (μg/ml) STA RMETH” value in assay [3] turned out to be 5.21 µg/mL (≈ 10 µM).

Regarding `COc1nc2ccc(Br)cc2cc1C(c1ccccc1)C(O)(CCCCN(C)C)c1cccc(F)c1` (racemic) [Compound 84], the “IC90 (μg/ml) SPN 6305” value in assay [1] worked out at 9.81 µg/mL (≈ 17.8 µM). In assay [2], the “IC90 (μg/ml) STA 29213” value was 1.74 µg/mL (≈ 3.16 µM). In addition, the “IC90 (μg/ml) STA RMETH” value in assay [3] was determined as 11 µg/mL (≈ 19.9 µM).

For `CCN(CC)CCCCC(O)(c1ccc2ccccc2c1)C(c1ccccc1)c1cc2cc(Br)ccc2nc1OC` (racemic) [Compound 85], the “IC90 (μg/ml) SPN 6305” value in assay [1] is 1.93 µg/mL (≈ 3.16 µM). The “IC90 (μg/ml) STA 29213” value in assay [2] was 1.93 µg/mL (≈ 3.16 µM). In addition, the “IC90 (μg/ml) STA RMETH” value in assay [3] is 12.2 µg/mL (≈ 19.9 µM).

For `CCN(CC)CCCCC(O)(c1ccc2ccccc2c1)C(c1ccccc1)c1cc2cc(Br)ccc2nc1OC` (racemic) [Compound 86], in assay [1], the “IC90 (μg/ml) SPN 6305” value stood at 2.43 µg/mL (≈ 3.97 µM). Further, the “IC90 (μg/ml) STA 29213” value in assay [2] came to 2.17 µg/mL (≈ 3.55 µM). Moreover, in assay [3], the “IC90 (μg/ml) STA RMETH” value came to 2.17 µg/mL (≈ 3.55 µM).

Turning to `CSc1nc2ccc(Br)cc2cc1C(c1ccccc1)C(O)(CCCCN(C)C)c1ccc2c(c1)OCO2` (racemic) [Compound 87], the “IC90 (μg/ml) SPN 6305” value in assay [1] is 2.36 µg/mL (≈ 3.98 µM). Also, the “IC90 (μg/ml) STA 29213” value in assay [2] stood at 1.88 µg/mL (≈ 3.17 µM). In addition, the “IC90 (μg/ml) STA RMETH” value in assay [3] came out at 2.36 µg/mL (≈ 3.98 µM).

As for `COc1nc2ccc(Br)cc2cc1C(c1ccccc1)C(O)(CCCCN1CCCCC1)c1ccc2ccccc2c1` (racemic) [Compound 96], in assay [1], the “IC90 (μg/ml) SPN 6305” value worked out at 2.21 µg/mL (≈ 3.54 µM). In addition, in assay [2], the “IC90 (μg/ml) STA 29213” value amounted to 4.42 µg/mL (≈ 7.09 µM). In assay [3], the “IC90 (μg/ml) STA RMETH” value was 9.88 µg/mL (≈ 15.8 µM).

In the case of `COc1nc2ccc(Br)cc2cc1C(c1ccccc1)C(O)(CCCCN1CCNCC1)c1ccccc1` (racemic) [Compound 104], the “IC90 (μg/ml) SPN 6305” value in assay [1] was determined as 2.04 µg/mL (≈ 3.55 µM). Also, in assay [2], the “IC90 (μg/ml) STA 29213” value turned out to be 1.82 µg/mL (≈ 3.17 µM). The “IC90 (μg/ml) STA RMETH” value in assay [3] turned out to be 12.86 µg/mL (≈ 22.4 µM).

Consider `COc1nc2ccc(Br)cc2cc1C(c1ccccc1)C(O)(CCCCN1CCNCC1)c1ccccc1` (racemic) [Compound 105], for which, in assay [1], the “IC90 (μg/ml) SPN 6305” value was found to be 2.29 µg/mL (≈ 3.99 µM). In addition, the “IC90 (μg/ml) STA 29213” value in assay [2] came out at 2.04 µg/mL (≈ 3.55 µM). In assay [3], the “IC90 (μg/ml) STA RMETH” value stood at 11.46 µg/mL (≈ 19.9 µM).

Take `COc1nc2ccc(Br)cc2cc1C(c1ccccc1)C(O)(CCCCN1CCCCC1)CC(C)C` (racemic) [Compound 122]: the “IC90 (μg/ml) SPN 6305” value in assay [1] worked out at 1.96 µg/mL (≈ 3.54 µM). In addition, in assay [2], the “IC90 (μg/ml) STA 29213” value is 1.75 µg/mL (≈ 3.16 µM). Moreover, the “IC90 (μg/ml) STA RMETH” value in assay [3] stood at 11.05 µg/mL (≈ 20 µM).

As to `COc1nc2ccc(Br)cc2cc1C(c1ccccc1)C(O)(CCCCN(C)C(C)C)c1ccccc1` (single isomer, unassigned) [Compound 91], in assay [1], the “IC90 (μg/ml) SPN 6305” value amounted to 2.51 µg/mL (≈ 4.47 µM). For the same compound, in assay [2], the “IC90 (μg/ml) STA 29213” value worked out at 2.24 µg/mL (≈ 3.99 µM). The “IC90 (μg/ml) STA RMETH” value in assay [3] was 12.57 µg/mL (≈ 22.4 µM).

Regarding `COc1nc2ccc(Br)cc2cc1C(c1ccccc1)C(O)(CCCCN1CCN(C)CC1)CCC1CCCCC1` (single isomer, unassigned) [Compound 126], the “IC90 (μg/ml) SPN 6305” value in assay [1] amounted to 2.21 µg/mL (≈ 3.55 µM). Further, the “IC90 (μg/ml) STA 29213” value in assay [2] was found to be 4.41 µg/mL (≈ 7.08 µM). The “IC90 (μg/ml) STA RMETH” value in assay [3] worked out at 5.55 µg/mL (≈ 8.91 µM).

In the case of `COc1nc2ccc(Br)cc2cc1C(c1ccccc1)C(O)(CCCCN(C)C)CCc1ccccc1` (single isomer, unassigned) [Compound 131], the “IC90 (μg/ml) SPN 6305” value in assay [1] was found to be 2.24 µg/mL (≈ 3.99 µM). In addition, the “IC90 (μg/ml) STA 29213” value in assay [2] was 1.78 µg/mL (≈ 3.17 µM). Further, the “IC90 (μg/ml) STA RMETH” value in assay [3] came to 11.2 µg/mL (≈ 19.9 µM).
